Results on ten compounds are retold here after PubChem BioAssay AID2060510 (Molecular Pharmacology Branch, DTP, NCI, 2025).

For orientation: viability, T/C means the ratio of treated to control. For orientation: IC50 means the midpoint of a concentration-inhibition curve.

The test system of the test is 439559-082-T-J2-PDC spheroids viability. The test is described as follows: Anticancer human tumor 439559-082-T-J2-PDC patient-derived colon adenocarcinoma cell line growth inhibition [GQUAD]. As to conditions: for viability, T/C: stronger effect = lower value. The source says:
DNA G-quadruplex Stabilizer Agents in Combinations in Complex Spheroids
A high-throughput screen of multi-cell type tumor spheroids was designed to identify active combinations of DNA G-quadruplex stabilizer agents and targeted small molecules. Complex spheroids include a stromal component modeled by human endothelial cells (HUVEC) and fibroblasts modeled by human mesenchymal stem cells (MSCs). The concentration ranges selected for each drug and investigational agent were based upon clinically achievable concentrations if the clinical Cmax of the agent was known.
Compounds. The drugs and investigational agents: pidnarulex (CX-5461; NSC782164), APTO-253 (NSC789042), BRACO-19 (NSC847499), peposertib (NSC802822), ceralasertib (NSC780249), elimusertib (NSC800525), camonsertib (NSC841442), AZD-1390 (NSC803789), olaparib (NSC753686), talazoparib (NSC767125), ART-558 (NSC835418), sotorasib (NSC818433), MRTX-1133 (NSC836407), SN-38 (NSC673596), topotecan (NSC609699), etoposide (NSC141540), doxorubicin (NSC123127), gemcitabine (NSC613327), 5-fluorouracil (NSC19893), paclitaxel (NSC125973), vemurafenib (NSC761431), panobinostat (NSC761190), R-306465 (JNJ-16241199; NSC773264), adavosertib (NSC754352), TP-3654 (NSC805149), carboplatin (NSC241240), KSQ-4279 (NSC840948), and staurosporine (NSC755774) were obtained from the National Cancer Institute (NCI) Developmental Therapeutics Program Chemical Repository (34). The FDA-approved anticancer drug set is available from the NCI Developmental Therapeutics Program. […] The stock solutions were prepared in dimethyl sulfoxide (DMSO, Sigma-Aldrich, St. Louis, MO, cat. D2650) at 800-fold the tested concentration and stored at -70 degrees C prior to their use. All drugs and investigational agents were tested over a range starting from a high concentration at or near the clinical Cmax and decreasing in half-log increments. If the clinical Cmax for an agent had not been determined, the highest concentration tested was 10 microM.
2.3 Cell Culture. All cells were maintained in an incubator at 37 degrees C and 5% CO2 with 95% humidity. The PDC lines were cultured according to standard operating procedures established by the NCI PDMR. All PDCs were thawed and cultured in Matrigel-coated flasks prepared with a working solution of 1X Ham's F-12 nutrient mix, without supplementation (Invitrogen, cat. 11765054), 100 U/mL penicillin-streptomycin (Invitrogen, cat. 15140122), and 2.5% Matrigel (Corning Inc., cat. 354248) for the first three passages. The 857933-349-R-J2-PDC line was cultured in 6C/Colon 1B media, which includes advanced DMEM/F-12 (Thermo Fisher Scientific, cat. 12634028), 10 mM HEPES (Thermo Fisher Scientific, cat. 15630080), 1X GlutaMAX supplement (Thermo Fisher Scientific, cat. 35050061), 0.1 mg/mL primocin (InvivoGen, cat. ant-pm-2), 10% defined fetal bovine serum, heat inactivated (HyClone Laboratories Inc., cat. SH30070.03HI), 50% L-WRN conditioned media (ATCC, cat. CRL-3276), 1.25 mM N-Acetyl-L-cysteine (Sigma-Aldrich, cat. A9165), 10 mM nicotinamide (Sigma-Aldrich, cat. N0636), 1X B-27 supplement (Thermo Fisher Scientific, cat. 17504044), 1X N-2 supplement (Thermo Fisher Scientific, cat. 17502048), 10 microM Y-27632 dihydrochloride (Tocris Bioscience, cat. 1254), and 50 ng/mL human EGF recombinant protein (Thermo Fisher Scientific, cat. PHG0311). The 485176-168-R4-J1-PDC line was cultured in Panc media, which includes all 6C/Colon 1B media components plus 100 ng/mL human FGF-10 (Thermo Fisher Scientific, cat. 100-26), 500 nM SB-431542 (Selleckchem, cat. S1067), and gastrin (Tocris, cat. 3006).
[…]

Where [1] appears, read: compound alone, run of 04/16/2024.

Values joined by “and” are separate entries in the source; they are usually repeats but may differ in a detail not shown here. Equal entries are not always repeated. Where only a bound is given, the exact number is not on record here.
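Also: spheroids exposed to the agents for 7 days before readout.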
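For viability, T/C in this document: percent of luminescence signal in DMSO vehicle wells taken as 100% viability.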

Take `COc1ccc([C@@H](O)c2cc(-c3ncnc4cc(N5CCOCC5)ccc34)c(F)cc2Cl)nn1`: the viability, T/C is 101% and 95.3% and 86.2% (compound 0.0316 µM); 85.9% and 92.8% and 85% (compound 0.1 µM); 94.8% and 100% and 84.1% (compound 0.316 µM); 98.8% and 88.3% and 102% (compound 1 µM); 86.5% and 77.7% and 79.9% (compound 3.16 µM); 91.6% and 78% and 75.7% (compound 10 µM). For the same compound, the IC50 (curve of compound) was over 10 µM.

`COc1cccc2c1C(=O)c1c(O)c3c(c(O)c1C2=O)CC(O)(C(=O)CO)CC3OC1CC(N)C(O)C(C)O1` (stereo unspecified): the viability, T/C (compound 0.0316 µM) was 95.9% and 97.8% and 102%; the viability, T/C (compound 0.1 µM) was 95.7% and 105% and 90.6%; the viability, T/C (compound 0.316 µM) was 88.5% and 84.1% and 81.5%; the viability, T/C (compound 1 µM) is 78.7% and 80.2% and 79.4%; the viability, T/C (compound 3.16 µM) is 61.8% and 57.9% and 63.3%; the viability, T/C (compound 10 µM) was 51.2% and 41.3% and 43.4%. Further, for the setting “curve of compound”, the IC50 was > 10 µM and 5.6 µM and 7.09 µM.

As for `Cc1[nH]c2ccc(F)cc2c1-c1nc2c3cccnc3c3ncccc3c2[nH]1`, the viability, T/C is 103% [middle of 12 runs] (compound 0.0316 µM); 102% [middle of 12 runs] (compound 0.1 µM); 100% [middle of 12 runs] (compound 0.316 µM); 94.9% [middle of 12 runs] (compound 1 µM); 86.4% [middle of 12 runs] (compound 3.16 µM); 89.3% [middle of 12 runs] (compound 10 µM). In addition, the IC50 was over 10 µM under setting [1] and over 10 µM (compound alone, run of 04/22/2024).

With `Cc1[nH]c2ccccc2c1CCNCc1ccc(/C=C/C(=O)NO)cc1`, the viability, T/C (compound 0.000999 µM) is 105% and 91.6% and 99.8%; the viability, T/C (compound 0.00316 µM) is 94.6% and 105% and 93.3%; the viability, T/C (compound 0.00999 µM) was 91.2% and 92.3% and 95.4%; the viability, T/C (compound 0.0316 µM) is 112% and 84.7% and 91.9%; the viability, T/C (compound 0.0999 µM) was 110% and 81.7% and 79%; the viability, T/C (compound 0.316 µM) is 101% and 63.2% and 61.6%. For the same compound, the IC50 (curve of compound) is over 0.316 µM.

In the case of `Cc1cccc(N(C)C(=O)C2C(O)CCN2c2nc(C)cc(C(F)(F)F)c2C#N)c1` (stereo unspecified), the viability, T/C (compound 0.0316 µM) was 93.8% and 107% and 103%; the viability, T/C (compound 0.1 µM) was 105% and 93.7% and 99.7%; the viability, T/C (compound 0.316 µM) is 106% and 102% and 85.8%; the viability, T/C (compound 1 µM) was 109% and 97.2% and 108%; the viability, T/C (compound 3.16 µM) is 116% and 104% and 109%; the viability, T/C (compound 10 µM) is 88.7% and 92.6% and 98.5%. Where the note is “curve of compound”, the IC50 is over 10 µM.

As for `Cc1cnc(CNC(=O)c2c(=O)c3ccc(N4CCCN(C)CC4)nc3n3c2sc2ccccc23)cn1`, the viability, T/C is 98.7% [middle of 12 runs] (compound 0.0316 µM); 93% [middle of 12 runs] (compound 0.1 µM); 88.6% [middle of 12 runs] (compound 0.316 µM); 81.6% [middle of 12 runs] (compound 1 µM); 75.7% [middle of 12 runs] (compound 3.16 µM); 75.7% [middle of 12 runs] (compound 10 µM). Also, the IC50 under setting [1] is over 10 µM.

For the compound `Cn1ncnc1[C@H]1c2n[nH]c(=O)c3cc(F)cc(c23)N[C@@H]1c1ccc(F)cc1`, the viability, T/C is 92.5% and 104% and 94.8% (compound 0.000999 µM); 84.5% and 91.5% and 115% (compound 0.00316 µM); 84.5% and 99.1% and 95.4% (compound 0.00999 µM); 87.8% and 102% (2×) (compound 0.0316 µM); 94.9% and 96.3% and 91.8% (compound 0.0999 µM); 91.2% and 91.9% and 86.3% (compound 0.316 µM). Under “curve of compound”, the IC50 is over 0.316 µM.

With `Nc1ccn(C2OC(CO)C(O)C2(F)F)c(=O)n1` (stereo unspecified), the viability, T/C runs as follows: (compound 0.0316 µM) 83.6% and 83.2% and 89.5%; (compound 0.1 µM) 74.3% and 67.4% and 60.4%; (compound 0.316 µM) 53.7% and 46.2% and 49.7%; (compound 1 µM) 38.5% and 30.7% and 32.6%; (compound 3.16 µM) 28.2% and 25.8% and 28.4%; (compound 10 µM) 22.9% and 26.9% and 23.2%. Also, the IC50 (curve of compound) is 0.444 µM and 0.249 µM and 0.24 µM.

Regarding `O=C(c1cc(Cc2n[nH]c(=O)c3ccccc23)ccc1F)N1CCN(C(=O)C2CC2)CC1`, the viability, T/C is 90.9% and 100% and 96.4% (compound 0.0316 µM); 103% and 97.7% and 97.9% (compound 0.1 µM); 94.8% and 86.2% and 99.2% (compound 0.316 µM); 98.9% and 98.6% and 98.4% (compound 1 µM); 123% and 104% and 94.1% (compound 3.16 µM); 91.1% and 89.6% and 94.1% (compound 10 µM). Where the note is “curve of compound”, the half-maximal inhibitory concentration (IC50) was over 10 µM.

As to `O=c1[nH]cc(F)c(=O)[nH]1`, the viability, T/C is, setting by setting: (compound 0.0316 µM) 93.1% and 96.1% and 94.6%; (compound 0.1 µM) 103% and 102% and 97.4%; (compound 0.316 µM) 85.9% and 79.7% and 88.7%; (compound 1 µM) 76.7% and 78.2% and 78.6%; (compound 3.16 µM) 79.4% and 74.2% and 76.8%; (compound 10 µM) 71.5% and 77.1% and 70.3%. Besides, the IC50 (curve of compound) was over 10 µM.
